One assay has as its system NCI-H1975. Nature of the assay: Antiproliferative activity against gefitinib-resistant human NCI-H1975 cells after 72 hrs by MTS assay. It is filed as functional, cell-based. On the technique in general: Formazan colour is commonly taken as a measure of viable cells.
For assay [1], the target named is Heat shock protein HSP 90-beta (Homo sapiens) (UniProt P08238). Nature of the assay: Inhibition of HSP90 in human H1975 cells assessed as reduction of Akt level at 100 uM after 24 hrs by Western blotting analysis. It is filed as cell-based. A general note: In western blotting, separated proteins are transferred to a membrane and probed.
Sequence of Heat shock protein HSP 90-beta (Homo sapiens) (P08238 whole entry): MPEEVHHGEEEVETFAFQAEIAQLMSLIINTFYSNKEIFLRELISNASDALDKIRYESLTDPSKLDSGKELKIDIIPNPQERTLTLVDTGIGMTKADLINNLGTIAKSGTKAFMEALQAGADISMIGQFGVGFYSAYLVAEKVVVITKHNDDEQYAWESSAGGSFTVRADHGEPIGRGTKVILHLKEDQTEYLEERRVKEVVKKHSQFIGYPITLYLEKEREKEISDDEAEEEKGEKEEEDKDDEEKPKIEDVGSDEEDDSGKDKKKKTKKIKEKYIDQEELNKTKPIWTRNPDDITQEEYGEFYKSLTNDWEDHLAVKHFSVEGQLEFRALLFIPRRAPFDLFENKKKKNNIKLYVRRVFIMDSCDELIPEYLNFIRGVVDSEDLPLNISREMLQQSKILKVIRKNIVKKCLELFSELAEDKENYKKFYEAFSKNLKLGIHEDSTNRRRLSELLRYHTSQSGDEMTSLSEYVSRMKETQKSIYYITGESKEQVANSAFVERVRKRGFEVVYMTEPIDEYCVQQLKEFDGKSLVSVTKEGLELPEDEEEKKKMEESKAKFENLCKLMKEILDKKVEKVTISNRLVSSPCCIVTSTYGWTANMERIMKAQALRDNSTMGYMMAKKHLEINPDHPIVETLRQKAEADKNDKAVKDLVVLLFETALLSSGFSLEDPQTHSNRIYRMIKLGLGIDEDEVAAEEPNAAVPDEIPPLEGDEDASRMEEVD
The target is the same in assay [2]. Nature of the assay: Inhibition of HSP90 in human H1975 cells assessed as upregulation of Hsp70 after 24 hrs by densitometric analysis. The assay is classed as cell-based.
Assay [3] deals with Heat shock protein HSP 90-alpha (Homo sapiens, UniProt P07900). As to the kind of experiment: Inhibition of recombinant human Hsp90alpha ATP-binding pocket of N-terminal domain after 4 hrs by fluorescence polarization assay. For orientation: Fluorescence polarisation rises when a labelled molecule tumbles more slowly, as on binding a larger partner.
The target in assay [4] is Heat shock protein HSP 90-beta (Homo sapiens) (UniProt P08238). As to the kind of experiment: Inhibition of HSP90 in human H1975 cells assessed as reduction of Met level at 100 uM after 24 hrs by Western blotting analysis. It is filed as cell-based.
Assay [5] has the same target. Nature of the assay: Inhibition of HSP90 in human H1975 cells assessed as reduction of Akt level after 24 hrs by densitometric analysis. The assay is classed as cell-based.
Assay [6] shares this target. Nature of the assay: Inhibition of HSP90 in human H1975 cells assessed as reduction of Her2 level after 24 hrs by densitometric analysis. It is filed as cell-based.
Assay [7] shares this target. As to the kind of experiment: Inhibition of HSP90 in human H1975 cells assessed as reduction of Her2 level at 50 to 100 uM after 24 hrs by densitometric analysis. It is filed as cell-based.
Assay [8] shares this target. Nature of the assay: Inhibition of HSP90 in human H1975 cells assessed as reduction of Met level after 24 hrs by densitometric analysis. It is filed as cell-based.
For assay [9] the target is unchanged. Nature of the assay: Inhibition of HSP90 in human H1975 cells assessed as reduction of Her2 level at 100 uM after 24 hrs by Western blotting analysis. It is filed as cell-based.
For assay [10] the target is unchanged. Nature of the assay: Inhibition of HSP90 in human H1975 cells assessed as upregulation of Hsp70 at 100 uM after 24 hrs by Western blotting analysis. It is filed as cell-based.

The source made the active and inactive calls. No cut-off for these calls is given here.

In general, IC50 refers to the concentration needed to halve the response being measured. In general, Ki refers to the equilibrium dissociation constant of an inhibitor or competing ligand from its target. In the case of `Cc1cccc(C)c1Oc1nc(N)nc(Cl)n1`, the Activity result (with NCI-H1975; in assay [2]; in [5]; in assay [6]; in assay [8]) was “Dose-dependent effect” in each case. The result in [1], in assay [4], in assay [7], in assay [9] and in assay [10] was Active. Besides, the IC50 in assay [3] came out at 5 µM. Also, the Ki in [3] was 2.8 µM.
Turning to `Nc1nc(Cl)nc(Nc2ccccc2)n1`, in the assay with NCI-H1975, the Activity result was “Dose-dependent effect”.
On the same count and under the same terms, the result for `COc1cc(COc2nc(N)nc(Cl)n2)cc(OC)c1OC` reads “Dose-dependent effect”; that for `Nc1nc(Cl)nc(Nc2ccc(O)cc2)n1`, “Dose-dependent effect”.
Consider `COc1ccc(Oc2nc(N)nc(Cl)n2)cc1`, for which, in the assay with NCI-H1975, the Activity result was “Dose-dependent effect”. In addition, the result in assay [1], in [4], in [9] and in [10] was Active.
With `COc1ccc(COc2nc(N)nc(Cl)n2)cc1`, the Activity result in the assay on NCI-H1975 was “Dose-dependent effect”. Further, the result in assay [4], in [9] and in [10] was inactive.
As for `Nc1nc(Cl)nc(Nc2ccccc2Cl)n1`, the Activity entry in the assay on NCI-H1975 is “Dose-dependent effect”.

The values are drawn from ChEMBL document CHEMBL3085689, “Targeting the hydrophobic region of Hsp90's ATP binding pocket with novel 1,3,5-triazines” (Bioorg Med Chem Lett, 2013).
